Experimental data reported in ChEMBL document CHEMBL5614376, “Discovery of MT-1207: A Novel, Potent Multitarget Inhibitor as a Promising Clinical Candidate for the Treatment of Hypertension” (J Med Chem, 2024).
Calls of active or inactive are those of the source. No cut-off for these calls is given here.

Experiments:
[1] = biological target: T1, 5-hydroxytryptamine receptor 2A (Homo sapiens, UniProt P28223); test: Displacement of [3H]Ketanserin from recombinant human 5-HT2A receptor extracted from CHO cell membrane at 1 nM incubated for 60 mins by radioligand binding assay relative to control; format: cell membranes; conditions: filed as antagonist
T1 sequence (P28223 whole entry): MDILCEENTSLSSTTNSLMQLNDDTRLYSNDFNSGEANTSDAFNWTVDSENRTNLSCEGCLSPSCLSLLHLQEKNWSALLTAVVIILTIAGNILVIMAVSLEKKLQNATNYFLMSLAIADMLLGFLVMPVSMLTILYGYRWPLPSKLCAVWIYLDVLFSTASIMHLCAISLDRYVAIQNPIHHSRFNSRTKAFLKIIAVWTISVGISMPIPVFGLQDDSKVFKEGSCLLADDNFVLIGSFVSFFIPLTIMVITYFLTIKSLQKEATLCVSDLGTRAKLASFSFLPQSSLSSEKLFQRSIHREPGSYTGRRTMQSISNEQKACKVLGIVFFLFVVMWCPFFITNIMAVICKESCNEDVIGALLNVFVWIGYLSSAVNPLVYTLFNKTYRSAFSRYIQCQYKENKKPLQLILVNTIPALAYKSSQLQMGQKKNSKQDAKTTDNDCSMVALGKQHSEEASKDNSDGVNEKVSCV

[2] = Metabolic stability in Beagle dog liver microsomes assessed as drug metabolism at 10 umol/L incubated upto 120 mins in presence of NADPH by LC-MS/MS analysis; format: ADME, Canis lupus familiaris, Microsome; conditions: 2 h, 10 µM, dose 10 µmol/L
[3] = Tmax in male Sprague-Dawley rat at 100 mg/kg, po measured on day 1 by UP/LC/MS/MS analysis; format: ADME, organism-based; conditions: in vivo, time 1 day
[4] = Metabolic stability in macaque liver microsomes assessed as drug metabolism at 10 umol/L incubated upto 120 mins in presence of NADPH by LC-MS/MS analysis; format: ADME, Microsome; conditions: macaca, 2 h, 10 µM, dose 10 µmol/L
Rattus norvegicus [5] = test: Effect on serum creatinine level in 2K2C renovascular hypertensive Sprague-Dawley rat model at 10 mg/kg, po measured after 9 weeks by biochemical analysis; format: functional, organism-based
Rattus norvegicus [6] = test: Effect on postural hypotension in Sprague-Dawley rat assessed as change in systolic blood pressure at 10 mg/kg, po treated for >30 mins followed by induction of postural hypotension measured immediately after postural change (reference value: 131 +/- 9 mmHg); format: functional; conditions: 0.5 h
Rattus norvegicus [7] = test: Effect on postural hypotension in Sprague-Dawley rat assessed as change in systolic blood pressure at 5 mg/kg, po treated for >30 mins followed by induction of postural hypotension measured 20 secs after postural change (reference value: 129 +/- 11 mmHg); format: functional; conditions: time > 30.33 min, 0.5055 h
[8] = Plasma protein binding in Sprague-Dawley rat at 10 uM incubated for 30 mins; format: ADME, cell-free; conditions: read-out: PPB (converted)
[9] = Tmax in female Sprague-Dawley rat at 100 mg/kg, po qd treated for 13 weeks consecutively measured after recovery period on day 91 by UP/LC/MS/MS analysis; format: ADME, organism-based; conditions: in vivo, time 91 day
[10] = Toxicity in female Sprague-Dawley rat assessed as reduction in body weight at 100 mg/kg, po qd treated for 4 days consecutively; format: organism-based; set-up: scale not given: the % may be the effect or the level left; conditions: in vivo, 96 h, time 4 day
[11] = biological target: T1, 5-hydroxytryptamine receptor 2A; test: Displacement of [3H]Ketanserin from recombinant human 5-HT2A receptor extracted from CHO cell membrane at 100 nM incubated for 60 mins by radioligand binding assay relative to control; format: cell membranes; conditions: filed as antagonist
[12] = Plasma protein binding in human at 0.1 uM incubated for 30 mins; format: ADME, cell-free; conditions: read-out: PPB (converted)
[13] = Tmax in female Sprague-Dawley rat at 30 mg/kg, po measured on day 1 by UP/LC/MS/MS analysis; format: ADME, organism-based; conditions: in vivo, time 1 day
[14] = Metabolic stability in Beagle dog liver microsomes assessed as compound remaining at 10 umol/L incubated upto 120 mins in presence of NADPH by LC-MS/MS analysis; format: ADME, Canis lupus familiaris, Microsome; conditions: dose 10 µmol/L, read-out: Stability
[15] = Cmax in female Sprague-Dawley rat at 30 mg/kg, po qd treated for 13 weeks consecutively measured after recovery period on day 91 by UP/LC/MS/MS analysis; format: ADME, organism-based; conditions: in vivo, time 91 day
[16] = AUC (0 to t) in female Sprague-Dawley rat at 10 mg/kg, po measured on day 1 by UP/LC/MS/MS analysis; format: ADME, organism-based; conditions: in vivo, time 1 day
[17] = Plasma protein binding in Beagle dog at 0.1 uM incubated for 30 mins; format: ADME, cell-free, Canis lupus familiaris; conditions: read-out: PPB (converted)
Rattus norvegicus [18] = test: Effect on postural hypotension in Sprague-Dawley rat assessed as change in systolic blood pressure at 2.5 mg/kg, po treated for >30 mins followed by induction of postural hypotension measured 60 secs after postural change (reference value: 127 +/- 10 mmHg); format: functional; conditions: time > 31 min
[19] = Tmax in male Sprague-Dawley rat at 30 mg/kg, po qd treated for 13 weeks consecutively measured after recovery period on day 91 by UP/LC/MS/MS analysis; format: ADME, organism-based; conditions: in vivo, time 91 day
[20] = Cmax in male Sprague-Dawley rat at 30 mg/kg, po qd treated for 13 weeks consecutively measured after recovery period on day 91 by UP/LC/MS/MS analysis; format: ADME, organism-based; conditions: in vivo, time 91 day
Rattus norvegicus [21] = test: Effect on postural hypotension in Sprague-Dawley rat assessed as change in systolic blood pressure at 2.5 mg/kg, po treated for >30 mins followed by induction of postural hypotension measured 20 secs after postural change (reference value: 129 +/- 11 mmHg); format: functional; conditions: time > 30.33 min, 0.5055 h
[22] = Toxicity in Sprague-Dawley rat assessed as change in body weight at 100 mg/kg, po qd treated for 13 weeks consecutively measured post-cessation of treatment; format: organism-based; conditions: in vivo, 2184 h
Rattus norvegicus [23] = test: Effect on postural hypotension in Sprague-Dawley rat assessed as change in systolic blood pressure at 2.5 mg/kg, po treated for >30 mins followed by induction of postural hypotension measured 5 secs after postural change (reference value: 126 +/- 12 mmHg); format: functional; conditions: time > 30.08 min, 0.5013 h
Rattus norvegicus [24] = test: Effect on postural hypotension in Sprague-Dawley rat assessed as change in systolic blood pressure at 10 mg/kg, po treated for >30 mins followed by induction of postural hypotension measured 20 secs after postural change (reference value: 129 +/- 11 mmHg); format: functional; conditions: time > 30.33 min, 0.5055 h
[25] = biological target: T1, 5-hydroxytryptamine receptor 2A; test: Displacement of [3H]Ketanserin from recombinant human 5-HT2A receptor extracted from CHO cell membrane incubated for 60 mins by radioligand binding assay; format: cell membranes
[26] = Metabolic stability in rat plasma assessed as enzymatic hydrolysis at 50 to 10000 ng/ml incubated upto 120 mins; format: ADME, cell-free; conditions: 2 h, dose 50-10000 ng/ml
[27] = Cmax in male Sprague-Dawley rat at 100 mg/kg, po qd treated for 13 weeks consecutively measured after recovery period on day 91 by UP/LC/MS/MS analysis; format: ADME, organism-based; conditions: in vivo, time 91 day
[28] = Metabolic stability in macaque liver microsomes assessed as drug elimination at 10 umol/L incubated for 5 mins in presence of NADPH by LC-MS/MS analysis; format: ADME, Microsome; conditions: macaca, 10 µM, dose 10 µmol/L
[29] = Metabolic stability in Beagle dog liver microsomes assessed as drug elimination at 10 umol/L incubated for 5 mins in presence of NADPH by LC-MS/MS analysis; format: ADME, Canis lupus familiaris, Microsome; conditions: 10 µM, dose 10 µmol/L
[30] = Tmax in male Sprague-Dawley rat at 100 mg/kg, po qd treated for 13 weeks consecutively measured after recovery period on day 91 by UP/LC/MS/MS analysis; format: ADME, organism-based; conditions: in vivo, time 91 day
[31] = Toxicity in male Sprague-Dawley rat assessed as reduction in body weight at 100 mg/kg, po qd treated for 4 days consecutively; format: organism-based; set-up: scale not given: the % may be the effect or the level left; conditions: in vivo, 96 h, time 4 day
[32] = Tmax in Sprague-Dawley rat at 9 mg/kg, po measured for 24 hrs by UPLC/MS/MS analysis; format: ADME, organism-based; conditions: in vivo
[33] = Acute toxicity in Sprague-Dawley rat assessed as discernible drug-related alterations at 250 to 1000 mg/kg, po single administration measured for 14 days; format: organism-based; conditions: in vivo, 336 h, dose 250-1000 mg/kg, time 14 day
[34] = Metabolic stability in human liver microsomes assessed as compound remaining at 10 umol/L incubated upto 120 mins in presence of NADPH by LC-MS/MS analysis; format: ADME, Microsome; conditions: dose 10 µmol/L, read-out: Stability

**Q.** Which inhibition [1] does the source give for Cl.c1ccc2c(c1)nnn2CCCCN1CCN(c2nsc3ccccc23)CC1 here?
**A.** The inhibition was 43.7%.

**Q.** What about the Drug metabolism [2] of the same compound?
**A.** The Drug metabolism was “Metabolite_Detected”.

**Q.** What about the Tmax [3] of the same compound?
**A.** Its Tmax is 1.3 h.

**Q.** What about the Drug metabolism [4] of the same compound?
**A.** Its Drug metabolism is “Metabolite_Detected”.

**Q.** What about the Activity (Rattus norvegicus [5]) of the same compound?
**A.** The Activity was “Active”.

**Q.** And the Activity (Rattus norvegicus [6])?
**A.** Its Activity is 89 mmHg.

**Q.** And the Activity (Rattus norvegicus [7])?
**A.** The Activity was 83 mmHg.

**Q.** What about the fraction unbound at 0.5 h, 10 µM [8] of the same compound?
**A.** The fraction unbound at 0.5 h, 10 µM was 0.017.

**Q.** And the Tmax [9]?
**A.** Its Tmax is 2.5 h.

**Q.** What about the Activity [10] of the same compound?
**A.** Its Activity is ~ 3.3%.

**Q.** What about the inhibition [11] of the same compound?
**A.** The inhibition was 99%.

**Q.** And the fraction unbound at 0.5 h, 0.1 µM [12]?
**A.** The fraction unbound at 0.5 h, 0.1 µM was 0.003.

**Q.** What about the Tmax [13] of the same compound?
**A.** The Tmax was 1 h.

**Q.** What about the remaining at 2 h, 10 µM [14] of the same compound?
**A.** Its remaining at 2 h, 10 µM is 6.04%.

**Q.** And the Cmax [15]?
**A.** The Cmax was 333 ng/mL.

**Q.** What about the AUC(0-t) at 24 h [16] of the same compound?
**A.** Its AUC(0-t) at 24 h is 344 ng·h/mL.

**Q.** And the fraction unbound at 0.5 h, 0.1 µM [17]?
**A.** Its fraction unbound at 0.5 h, 0.1 µM is 0.012.

**Q.** And the Activity (Rattus norvegicus [18])?
**A.** The Activity was 93 mmHg.

**Q.** What about the Tmax [19] of the same compound?
**A.** The Tmax was 1 h.

**Q.** And the Cmax [20]?
**A.** Its Cmax is 238 ng/mL.

**Q.** And the Activity (Rattus norvegicus [21])?
**A.** The Activity was 91 mmHg.

**Q.** What about the Activity [22] of the same compound?
**A.** The Activity was “Non-Toxic”.

**Q.** And the Activity (Rattus norvegicus [23])?
**A.** Its Activity is 89 mmHg.

**Q.** What about the Activity (Rattus norvegicus [24]) of the same compound?
**A.** Its Activity is 85 mmHg.

**Q.** What about the IC50 [25] of the same compound?
**A.** Its IC50 is 0.27 nM.

**Q.** What about the Ki [25] of the same compound?
**A.** The Ki was 0.079 nM.

**Q.** What about the Stability [26] of the same compound?
**A.** The Stability was “Stable”.

**Q.** And the Cmax [27]?
**A.** Its Cmax is 538 ng/mL.

**Q.** And the Drug excretion [28]?
**A.** The Drug excretion was “Active”.

**Q.** And the Drug excretion [29]?
**A.** The Drug excretion was “Active”.

**Q.** What about the Tmax [30] of the same compound?
**A.** The Tmax was 1.3 h.

**Q.** And the Activity [31]?
**A.** The Activity was ~ 5.4%.

**Q.** What about the Tmax [32] of the same compound?
**A.** The Tmax was 0.65 h.

**Q.** What about the Activity [33] of the same compound?
**A.** Its Activity is “Non-Toxic”.

**Q.** And the remaining at 2 h, 10 µM [34]?
**A.** Its remaining at 2 h, 10 µM is 23.9%.
